Reference: patent publication US20040082602A1, “Substituted thiophene carboxamide compounds for the treatment of inflammation” (priority 2002, published 2004)
Structures can show the parent of a compound that is named as a salt.

target: T1, IKK-2 (Homo sapiens, UniProt O14920); assay: IKK-2 Resin assay (IKKβ Resin Enzyme Assay); assay type: biochemical; conditions: rhIKK2 homodimer, 5 μM biotinylated IκBα peptide, 1 μM ATP, 25° C., 30 min
T1 construct: made in house; host or cells: baculovirus (pFastBac) in insect cells; SF9
T1 sequence (O14920 1-756): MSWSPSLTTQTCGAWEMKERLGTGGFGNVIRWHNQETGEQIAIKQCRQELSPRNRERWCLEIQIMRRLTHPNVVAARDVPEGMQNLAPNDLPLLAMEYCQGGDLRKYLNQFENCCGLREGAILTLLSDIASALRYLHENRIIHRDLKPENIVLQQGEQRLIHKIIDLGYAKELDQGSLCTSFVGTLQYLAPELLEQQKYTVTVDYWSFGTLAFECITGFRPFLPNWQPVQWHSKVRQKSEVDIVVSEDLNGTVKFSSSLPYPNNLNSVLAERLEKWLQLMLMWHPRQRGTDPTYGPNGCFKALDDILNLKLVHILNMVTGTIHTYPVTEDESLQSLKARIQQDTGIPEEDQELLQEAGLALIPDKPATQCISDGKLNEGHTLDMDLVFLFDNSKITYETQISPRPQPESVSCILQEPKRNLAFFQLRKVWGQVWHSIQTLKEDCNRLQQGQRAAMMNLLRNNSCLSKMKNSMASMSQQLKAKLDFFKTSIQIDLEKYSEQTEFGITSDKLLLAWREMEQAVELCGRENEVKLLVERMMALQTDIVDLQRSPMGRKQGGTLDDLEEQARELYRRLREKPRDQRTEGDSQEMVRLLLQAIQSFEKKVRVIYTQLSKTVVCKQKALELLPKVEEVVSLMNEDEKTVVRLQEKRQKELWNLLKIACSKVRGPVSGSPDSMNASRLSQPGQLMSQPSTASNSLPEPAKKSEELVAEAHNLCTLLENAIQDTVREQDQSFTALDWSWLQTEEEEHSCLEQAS
Excerpt: cDNAs of human IKK1 and IKK2 were amplified by reverse transcriptase-polymerase chain reaction from human placental RNA (Clonetech). hIKK1 was subcloned into pFastBac HTa (Life Technologies) and expressed as N-terminal His6-tagged fusion protein. The hIKK2 cDNA was amplified using a reverse oligonucleotide primer which incorporated the peptide sequence for a FLAG-epitope tag at the C-terminus of the IKK2 coding region (DYKDDDDKD). The hIKK2:FLAG cDNA was subcloned into the baculovirus vector pFastBac. The rhIKK2 ([…]) mutant was constructed in the same vector used for wild type rhIKK2 using a QuikChange™ mutagenesis kit (Stratagene). Viral stocks of each construct were used to infect insect cells grown in 40L suspension culture. […] Cell lysates were stored at −80° C. until purification of the recombinant proteins was undertaken as described below.
A 10-liter culture of baculovirus-expressing IKK2 tagged with FLAG peptide was centrifuged and the cell pellet (MOI=0.1 and 1=72 hrs) was re-suspended in buffer A. These cells were microfluidized, and centrifuged at 100,000×g for 45 min. Supernatant was passed over a G-25 column equilibrated with Buffer A. Protein peak was collected and incubated with anti-FLAG affinity resin on a rotator overnight in buffer B. The resin was washed in batch with 10-15 bed volumes of buffer C. Washed resin was poured into a column and rhIKK2 homodimer was eluted using 5 bed volumes of buffer B containing FLAG peptide. 5 mM DTT, 0.1% NP-40 and BSA (concentrated to 0.1% in final amount) was added to the eluted enzyme before concentrating in using an Amicon membrane with a molecular weight cut-off of 30 kDa. Enzyme was aliquoted and stored at −80° C.
IKKβ kinase activity was measured using a biotinylated IκBα peptide (Gly-LeuLys-Lys-Glu-Arg-Leu-Leu-Asp-Asp-Arg-His-Asp-Ser32-Gly-Leu-Asp-Ser36-Met Lys-Asp-Glu-Glu) (American Peptide Co.). 20 ul of the standard reaction mixture contained 5 μM biotinylated IκBα peptide, 0.1 μCi/reaction [γ^33P] ATP (Amersham) (about 1×10^5 cpm), 1 μM ATP (Sigma), 1 mM DTT (Sigma), 2 mM MgCl2 (Sigma), 2 mM MnCl2 (Sigma), 10 mM NaF (Sigma), 25 mM Hepes (Sigma) buffer, pH 7.6 and 20 μl enzyme solution and 10 ul inhibitor in a final volume of […]. After incubation at 25° C. for 30 min, 150 μl resin (Dowex anion-exchange resin AGIX8 200-400 mesh) in 900 mM formate, pH 3.0 was added to each well to stop the reaction. Resin was allowed to settle for one hour and 50 ul of supernatant was removed to a Micolite-2 flat bottom plate (Dynex). 150 μl of scintillation fluid (Microscint 40) (Packard) was added to each well. Incorporation of [γ-^33P] ATP was measured using a Top-Count NXT (Packard).

SMILES | IC50 [µM]
NC(=O)c1sc2c(c1N)CCc1ccccc1-2 [Example 1, 3-amino-4,5-dihydronaphtho[1,2-b]thiophene-2-carboxamide] | 10 to 20
COc1ccc2c(c1)-c1sc(C(N)=O)c(N)c1CC2 [Example 2, 3-amino-8-methoxy-4,5-dihydronaphtho[1,2-b]thiophene-2-carboxamide] | 1 to 10
NC(=O)Nc1sc2c(c1C(N)=O)CCc1ccccc1-2 [Example 8, 2-[(aminocarbonyl)amino]-4,5-dihydronaphtho[1,2-b]thiophene-3-carboxamide] | ≤ 1
NCCNc1c(C(N)=O)sc2c1CCc1ccccc1-2 [Example 3, 3-[(2-aminoethyl)amino]-4,5-dihydronaphtho[1,2-b]thiophene-2-carboxamide hydrobromide] | 1 to 10
NC(=O)Nc1c(C(N)=O)sc2c1CCc1ccccc1-2 [Example 5, 3-[(aminocarbonyl)amino]4,5-dihydronaphtho[1,2-b]thiophene-2-carboxamide] | 10 to 20

Other lines, results leading:

IC50 [µM] | SMILES
10 to 20 | N#Cc1c(N)sc2c1CCc1ccccc1-2 [Example 6, 2-amino-4,5-dihydronaphtho[1,2-b]thiophene-3-carbonitrile]
10 to 20 | CC(=O)Nc1sc2c(c1C(N)=O)CCc1ccccc1-2 [Example 7, 2-(acetylamino)-4,5-dihydronaphtho[1,2-b]thiophene-3-carboxamide]
10 to 20 | NCCCNc1c(C(N)=O)sc2c1CCc1ccccc1-2 [Example 4, 3-[(3-aminopropyl)amino]-4,5-dihydronaphtho[1,2-b]thiophene-2-carboxamide hydrochloride]
